Values joined by “and” are separate entries in the source; they are usually repeats but may differ in a detail not shown here. Identical values can stand only once. Numbers after ± are expanded uncertainties.
What was measured:
[1] = molar heat capacity at constant pressure; conditions: Liquid, Large sample (1 g) DSC
[2] = molar heat capacity at constant pressure; xn = mol fraction of the nth substance listed; conditions: 100 kPa, Liquid, Large sample (1 g) DSC, x1 = 0.38

CC [ethane]
[1]
Conditions	molar heat capacity at constant pressure [J/K/mol]
108.15 K, 1050 kPa	67.9 ± 1.7
108.15 K, 2020 kPa	67.87 ± 1.7
108.15 K, 4290 kPa	67.78 ± 1.7
118.15 K, 1060 kPa	68.26 ± 1.7
118.15 K, 2030 kPa	67.63 ± 1.7
118.15 K, 4290 kPa	68.95 ± 1.7
128.15 K, 4310 kPa	68.65 ± 1.7
143.15 K, 4080 kPa	68.62 ± 1.7
153.15 K, 4070 kPa	69.94 ± 1.7
163.15 K, 4050 kPa	70.84 ± 1.7
188.15 K, 1120 kPa	73.46 ± 1.8
188.15 K, 4310 kPa	72.41 ± 1.8
228.15 K, 1170 kPa	81.04 ± 2
228.15 K, 4320 kPa	80.07 ± 2
238.15 K, 1210 kPa	83.71 ± 2
238.15 K, 4330 kPa	82.72 ± 2

CCCCCCC [heptane]
[1], 100 kPa
Conditions	molar heat capacity at constant pressure
228.15 K	202.31 ± 4.9 J/K/mol and 201.51 ± 4.9 J/K/mol
238.15 K	206.22 ± 5 J/K/mol and 205.11 ± 5 J/K/mol
303.15 K	225.96 ± 5.5 J/K/mol and 225.25 ± 5.5 J/K/mol
313.15 K	229.16 ± 5.6 J/K/mol and 230.87 ± 5.6 J/K/mol

C [methane]
[1]
Conditions	molar heat capacity at constant pressure [J/K/mol]
108.15 K, 4230 kPa	54.4 ± 1.3
108.15 K, 6300 kPa	54.11 ± 1.3
118.15 K, 4270 kPa	55.54 ± 1.4
118.15 K, 6350 kPa	55.11 ± 1.4
128.15 K, 4330 kPa	57.03 ± 1.4
128.15 K, 6400 kPa	56.66 ± 1.4
143.15 K, 4350 kPa	59.37 ± 1.5
153.15 K, 4340 kPa	63.24 ± 1.6
153.15 K, 6340 kPa	60.98 ± 1.5
163.15 K, 4390 kPa	67.7 ± 1.8
163.15 K, 6470 kPa	64.51 ± 1.7
173.15 K, 4380 kPa	77.87 ± 2.2
173.15 K, 6450 kPa	70.97 ± 1.9

CCC [propane]
[1]
Conditions	molar heat capacity at constant pressure [J/K/mol]
108.15 K, 1160 kPa	84.97 ± 2.1
108.15 K, 3680 kPa	86.69 ± 2.1
108.15 K, 5160 kPa	86.65 ± 2.2
108.15 K, 5330 kPa	84.8 ± 2.2
118.15 K, 1170 kPa	84.75 ± 2.1
118.15 K, 3650 kPa	87.09 ± 2.1
118.15 K, 5180 kPa	87.04 ± 2.2
118.15 K, 5430 kPa	85.46 ± 2.2
128.15 K, 1180 kPa	85.28 ± 2.1
128.15 K, 3640 kPa	86.65 ± 2.1
128.15 K, 3670 kPa	86.3 ± 2.1
128.15 K, 5190 kPa	86.56 ± 2.2
128.15 K, 5430 kPa	85.55 ± 2.1
143.15 K, 1130 kPa	86.43 ± 2.1
143.15 K, 3690 kPa	86.69 ± 2.1
143.15 K, 5180 kPa	86.56 ± 2.1
153.15 K, 1190 kPa	87.62 ± 2.2
153.15 K, 5200 kPa	88.68 ± 2.2
163.15 K, 1170 kPa	87.97 ± 2.2
163.15 K, 5210 kPa	89.34 ± 2.2
188.15 K, 1190 kPa	91.15 ± 2.2
188.15 K, 5220 kPa	91.1 ± 2.2
228.15 K, 1150 kPa	98.73 ± 2.4
228.15 K, 3670 kPa	98.42 ± 2.4
228.15 K, 5220 kPa	98.11 ± 2.4
238.15 K, 1110 kPa	101.24 ± 2.5
238.15 K, 3680 kPa	100.71 ± 2.5
238.15 K, 5220 kPa	100.63 ± 2.5
248.15 K, 1160 kPa	103.58 ± 2.6
248.15 K, 3670 kPa	102.17 ± 2.5
248.15 K, 5190 kPa	101.46 ± 2.5
258.15 K, 1160 kPa	105.65 ± 2.6
258.15 K, 3680 kPa	104.11 ± 2.6
258.15 K, 5220 kPa	103.76 ± 2.6

Cc1ccccc1 [toluene]
[1], 100 kPa
Conditions	molar heat capacity at constant pressure
228.15 K	138.39 ± 3.4 J/K/mol and 139.13 ± 3.4 J/K/mol
238.15 K	140.79 ± 3.4 J/K/mol and 140.97 ± 3.5 J/K/mol
303.15 K	159.03 ± 3.9 J/K/mol and 157.65 ± 3.9 J/K/mol
313.15 K	162.35 ± 4 J/K/mol and 161.98 ± 4 J/K/mol

Cc1ccccc1 [toluene] + CCCCCCC
[2]
Conditions	molar heat capacity at constant pressure [J/K/mol]
228.15 K	166.3 ± 4.1
238.15 K	168.05 ± 4.1
303.15 K	185.24 ± 4.6
313.15 K	189.52 ± 4.7
